PubChem BioAssay (NCI)
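Exposure lasted 48 hours, with cells grown in 96-well plates and compounds tested at five concentrations. Here, GI50 denotes the concentration required for 50% inhibition of growth. TGI: total growth inhibition.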

Tests used:
Assay in all cases: NCI anticancer screen, dose series, 48 h
[1] = system: 786-0 renal
[2] = system: A498 renal
[3] = system: A549 NSCLC
[4] = system: ACHN renal
[5] = system: BT-549 breast
[6] = system: CAKI-1 renal
[7] = system: CCRF-CEM leukemia
[8] = system: COLO 205 colon
[9] = system: DU-145 prostate
[10] = system: EKVX NSCLC
[11] = system: HCC-2998 colon
[12] = system: HCT-116 colon
[13] = system: HCT-15 colon
[14] = system: HL-60(TB) leukemia
[15] = system: HOP-62 NSCLC
[16] = system: HOP-92 NSCLC
[17] = system: HS 578T breast
[18] = system: HT29 colon
[19] = system: IGROV1 ovarian
[20] = system: K-562 leukemia
[21] = system: KM12 colon
[22] = system: LOX IMVI melanoma
[23] = system: M14 melanoma
[24] = system: MALME-3M melanoma
[25] = system: MCF7 breast
[26] = system: MDA-MB-231 breast
[27] = system: MDA-MB-435
[28] = system: MOLT-4 leukemia
[29] = system: NCI-H226 lung
[30] = system: NCI-H23 lung
[31] = system: NCI-H460 lung
[32] = system: NCI-H522 lung
[33] = system: NCI/ADR-RES ovarian
[34] = system: OVCAR-3 ovarian
[35] = system: OVCAR-4 ovarian
[36] = system: OVCAR-5 ovarian
[37] = system: OVCAR-8 ovarian
[38] = system: PC-3 prostate
[39] = system: RPMI-8226 leukemia
[40] = system: RXF 393 renal
[41] = system: SF-268 CNS
[42] = system: SF-295 CNS
[43] = system: SF-539 CNS
[44] = system: SK-MEL-2 melanoma
[45] = system: SK-MEL-28 melanoma
[46] = system: SK-MEL-5 melanoma
[47] = system: SK-OV-3 ovarian
[48] = system: SN12C renal
[49] = system: SNB-19 CNS
[50] = system: SNB-75 CNS
[51] = system: SW-620 colon
[52] = system: T-47D breast
[53] = system: TK-10 renal
[54] = system: U251 CNS
[55] = system: UACC-257 melanoma
[56] = system: UACC-62 melanoma
[57] = system: UO-31 renal

C[n+]1c(-c2ccccc2)c2cc(N)ccc2c2ccccc21
GI50 [1]: 7.87 µM | TGI [1]: > 100 µM | GI50 [2]: 19.6 µM | TGI [2]: > 79.5 µM | GI50 [3]: 5.1 µM | TGI [3]: > 47.7 µM | GI50 [4]: > 63.7 µM | TGI [4]: > 100 µM | GI50 [5]: 2.44 µM | TGI [5]: 16.7 µM | GI50 [6]: > 59.8 µM | TGI [6]: > 100 µM | GI50 [7]: 3.4 µM | TGI [7]: 29.5 µM | GI50 [8]: 1.97 µM | TGI [8]: 6 µM | GI50 [9]: 4.12 µM | TGI [9]: 57.3 µM | GI50 [10]: 7.97 µM | TGI [10]: > 100 µM | GI50 [11]: 2 µM | TGI [11]: 7.97 µM | GI50 [12]: 2.75 µM | TGI [12]: 44.6 µM | GI50 [13]: > 100 µM | TGI [13]: > 100 µM | GI50 [14]: 6.01 µM | TGI [14]: 25.1 µM | GI50 [15]: 7.13 µM | TGI [15]: 38.2 µM | GI50 [16]: 2.57 µM | TGI [16]: 20 µM | GI50 [17]: 2.76 µM | TGI [17]: 12.3 µM | GI50 [18]: 3.45 µM | TGI [18]: 22.3 µM | GI50 [19]: 5.78 µM | TGI [19]: > 44.2 µM | GI50 [20]: 2.51 µM | TGI [20]: 28.4 µM | GI50 [21]: 2.87 µM | TGI [21]: 14.8 µM | GI50 [22]: 4.16 µM | TGI [22]: > 70.7 µM | GI50 [23]: 8.94 µM | TGI [23]: 32.7 µM | GI50 [24]: 1.98 µM | TGI [24]: 6.63 µM | GI50 [25]: 2.43 µM | TGI [25]: 17.9 µM | GI50 [26]: 13.3 µM | TGI [26]: 60 µM | GI50 [27]: 3.22 µM | TGI [27]: 14.2 µM | GI50 [28]: 1.99 µM | TGI [28]: 20.5 µM | GI50 [29]: 8.7 µM | TGI [29]: > 58.5 µM | GI50 [30]: 2.28 µM | TGI [30]: 12.2 µM | GI50 [31]: 3.2 µM | TGI [31]: 26.4 µM | GI50 [32]: 3.91 µM | TGI [32]: > 100 µM | GI50 [33]: > 100 µM | TGI [33]: > 100 µM | GI50 [34]: 3.48 µM | TGI [34]: 22.2 µM | GI50 [35]: 2.84 µM | TGI [35]: 16 µM | GI50 [36]: 25.4 µM | TGI [36]: > 100 µM | GI50 [37]: 12.4 µM | TGI [37]: > 100 µM | GI50 [38]: 4.45 µM | TGI [38]: 31.8 µM | GI50 [39]: 1.64 µM | TGI [39]: 9.75 µM | GI50 [40]: 26.3 µM | TGI [40]: > 100 µM | GI50 [41]: 0.534 µM | TGI [41]: 7.07 µM | GI50 [42]: 5.68 µM | TGI [42]: > 78.1 µM | GI50 [43]: 3.49 µM | TGI [43]: 15.5 µM | GI50 [44]: 6.08 µM | TGI [44]: 32.9 µM | GI50 [45]: 2.19 µM | TGI [45]: 4.95 µM | GI50 [46]: 2.11 µM | TGI [46]: 6.5 µM | GI50 [47]: 11.7 µM | TGI [47]: > 91.9 µM | GI50 [48]: 2.13 µM | TGI [48]: 20.2 µM | GI50 [49]: 2.09 µM | TGI [49]: 20.6 µM | GI50 [50]: 1.28 µM | TGI [50]: 3.07 µM | GI50 [51]: 3.38 µM | TGI [51]: 50.5 µM | GI50 [52]: 2.42 µM | TGI [52]: 14.9 µM | GI50 [53]: 8.69 µM | TGI [53]: > 59.5 µM | GI50 [54]: 1.39 µM | TGI [54]: > 44.3 µM | GI50 [55]: 4.73 µM | TGI [55]: > 100 µM | GI50 [56]: 2 µM | TGI [56]: 5.03 µM | GI50 [57]: > 83.8 µM | TGI [57]: > 100 µM

COc1cc2c3c(n(CCCNCCNCCN)c(=O)c2cc1OC)-c1cc2c(cc1C3=O)OCO2
GI50 [1]: 1.91 µM | TGI [1]: 14.7 µM | GI50 [2]: 19.1 µM | TGI [2]: 39.6 µM | GI50 [3]: 3.55 µM | TGI [3]: 62.2 µM | GI50 [4]: 3.3 µM | TGI [4]: > 53.2 µM | GI50 [5]: 3.09 µM | TGI [5]: 15 µM | GI50 [6]: 3.38 µM | TGI [6]: 22.9 µM | GI50 [7]: 0.0835 µM | TGI [7]: 1.58 µM | GI50 [8]: 2.58 µM | TGI [8]: > 100 µM | GI50 [9]: 1.14 µM | TGI [9]: 5.82 µM | GI50 [10]: 1.68 µM | TGI [10]: 8.1 µM | GI50 [11]: 3.2 µM | TGI [11]: 23.8 µM | GI50 [12]: 0.831 µM | TGI [12]: 2.19 µM | GI50 [13]: 11.9 µM | TGI [13]: > 100 µM | GI50 [14]: 1.14 µM | TGI [14]: 15.6 µM | GI50 [15]: 2.8 µM | TGI [15]: 20.5 µM | GI50 [16]: 4.85 µM | TGI [16]: 37.7 µM | GI50 [17]: 3.07 µM | TGI [17]: 15.7 µM | GI50 [18]: 1.72 µM | GI50 [19]: 5.21 µM | TGI [19]: > 100 µM | GI50 [20]: 1.18 µM | TGI [20]: 15.9 µM | GI50 [21]: 3.41 µM | TGI [21]: 17.8 µM | GI50 [22]: 2.67 µM | TGI [22]: 18.3 µM | GI50 [23]: 3.35 µM | TGI [23]: 14.7 µM | GI50 [24]: 0.699 µM | TGI [24]: 5.75 µM | GI50 [25]: 0.434 µM | GI50 [26]: 0.904 µM | TGI [26]: 6.97 µM | GI50 [27]: 2.67 µM | TGI [27]: 10.6 µM | GI50 [28]: 0.186 µM | TGI [28]: 1.8 µM | GI50 [29]: 4.08 µM | TGI [29]: 21.4 µM | GI50 [30]: 1.92 µM | TGI [30]: 8.95 µM | GI50 [31]: 2.08 µM | TGI [31]: > 42.6 µM | GI50 [32]: 2.85 µM | TGI [32]: > 24.3 µM | GI50 [33]: > 100 µM | TGI [33]: > 100 µM | GI50 [34]: 1.48 µM | TGI [34]: 6.01 µM | GI50 [35]: 5.09 µM | TGI [35]: > 31 µM | GI50 [36]: 3.61 µM | TGI [36]: > 25.2 µM | GI50 [37]: 1.46 µM | TGI [37]: 11.2 µM | GI50 [38]: 5.62 µM | TGI [38]: > 55.5 µM | GI50 [39]: 1.22 µM | TGI [39]: 3.44 µM | GI50 [40]: 5.78 µM | TGI [40]: > 29.3 µM | GI50 [41]: 1.72 µM | TGI [41]: 21.7 µM | GI50 [42]: 0.522 µM | TGI [42]: 11.4 µM | GI50 [43]: 0.551 µM | TGI [43]: 3.21 µM | GI50 [44]: 6.94 µM | TGI [44]: 17.4 µM | GI50 [45]: 4.65 µM | TGI [45]: > 39.1 µM | GI50 [46]: 1.99 µM | TGI [46]: 9.5 µM | GI50 [47]: 12.1 µM | TGI [47]: > 100 µM | GI50 [48]: 2.5 µM | TGI [48]: 64.7 µM | GI50 [49]: 2.12 µM | TGI [49]: > 100 µM | GI50 [50]: 0.277 µM | TGI [50]: 9.47 µM | GI50 [51]: 2.13 µM | TGI [51]: 43.8 µM | GI50 [52]: 2.99 µM | TGI [52]: > 100 µM | GI50 [53]: 3.23 µM | TGI [53]: 22.4 µM | GI50 [54]: 1.85 µM | TGI [54]: > 100 µM | GI50 [55]: 15.2 µM | TGI [55]: 35.9 µM | GI50 [56]: 2.34 µM | TGI [56]: 12.8 µM | GI50 [57]: 47.8 µM | TGI [57]: > 100 µM
